ChEMBL document CHEMBL1201862, “PubChem BioAssay data set” (2004)
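Values below derive from 48-hour exposures of cells grown in 96-well plates, with endpoints linearly interpolated between the two concentrations bracketing the appropriate inhibition level. The concentration for 50% growth inhibition is given as GI50.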 The source made the active and inactive calls. No stated cut-off is given here; in the data, active = GI50 up to about 1.1 µM and inactive = higher.

What was measured:
Assay in all cases: NCI-60 cell line screen, 48 h
HOP-18 = tested on: HOP-18
DMS-273 = tested on: DMS-273
DLD-1 = tested on: DLD-1
M19-MEL = tested on: M19-MEL
XF498 = tested on: XF498
DMS-114 = tested on: DMS-114
SNB-78 = tested on: SNB-78
LXFL 529 = tested on: LXFL 529
RXF 631 = tested on: RXF 631

SMILES | GI50 (HOP-18) | GI50 (DMS-273) | GI50 (DLD-1) | GI50 (M19-MEL) | GI50 (XF498) | GI50 (DMS-114) | GI50 (SNB-78) | GI50 (LXFL 529) | GI50 (RXF 631)
CCCCCCCCCCCOC(=S)NC(C)C | 27.5 µM (inactive) | 18.3 µM (inactive) | 21.4 µM (inactive) | 24.9 µM (inactive) | 16.7 µM (inactive) | 17.8 µM (inactive) | 33.9 µM (inactive) | 25.8 µM (inactive) | –
COC1OC(C)C(OC(=O)C(C)(C)C)C(OS(=O)(=O)c2ccc(C)cc2)C1OS(=O)(=O)c1ccc(C)cc1 (centres undefined) | > 100 µM (inactive) | > 100 µM (inactive) | > 100 µM (inactive) | > 100 µM (inactive) | – | > 100 µM (inactive) | > 100 µM (inactive) | > 100 µM (inactive) | –
NC(=O)N1N=C2c3ccccc3CC[C@@H]2C1c1ccccc1 (some centres undefined) | – | > 100 µM (inactive) | > 100 µM (inactive) | > 100 µM (inactive) | – | 77.1 µM (inactive) | > 100 µM (inactive) | > 100 µM (inactive) | –
CN(C)C(=O)OC(Cn1cncn1)c1ccc(Cl)cc1Cl (centres undefined) | > 100 µM (inactive) | > 100 µM (inactive) | > 100 µM (inactive) | > 100 µM (inactive) | – | > 100 µM (inactive) | > 100 µM (inactive) | > 100 µM (inactive) | –
CCOC(=O)/N=C(\N)SCc1ccccc1 | > 100 µM (inactive) | > 100 µM (inactive) | > 100 µM (inactive) | > 100 µM (inactive) | > 100 µM (inactive) | > 100 µM (inactive) | > 100 µM (inactive) | > 100 µM (inactive) | > 100 µM (inactive)
COc1ccc(/C=C2\CN(C)Cc3c2nc(N)nc3-c2ccc(OC)cc2)cc1 | – | > 100 µM (inactive) | 57 µM (inactive) | 95.3 µM (inactive) | 35 µM (inactive) | 65.3 µM (inactive) | > 100 µM (inactive) | 49.5 µM (inactive) | –
NC1N=Nc2ccccc21 (centres undefined) | – | > 100 µM (inactive) | > 100 µM (inactive) | > 100 µM (inactive) | > 100 µM (inactive) | > 100 µM (inactive) | – | > 100 µM (inactive) | > 100 µM (inactive)
CCOC(=O)/C(Br)=C1/OC(=O)c2ccccc2-c2ccccc21.CCOC(=O)/C(Br)=C1\OC(=O)c2ccccc2-c2ccccc21 | 22 µM (inactive) | 14.7 µM (inactive) | 17.9 µM (inactive) | 15.8 µM (inactive) | 18.5 µM (inactive) | 15.4 µM (inactive) | 20.6 µM (inactive) | 13.6 µM (inactive) | 21.9 µM (inactive)
O=C1c2ccccc2C(=O)c2c1oc1cc(O)c(Cl)cc21 | 1.73 µM (inactive) | 2.41 µM (inactive) | 6.22 µM (inactive) | 0.177 µM (active) | 7.41 µM (inactive) | 2.23 µM (inactive) | 5.69 µM (inactive) | 20.5 µM (inactive) | –
CC(C)/C=C1\CCC(CN2CCOCC2)C1=O (centres undefined) | 17.7 µM (inactive) | – | 2.69 µM (inactive) | 23.4 µM (inactive) | 18.3 µM (inactive) | – | 12.5 µM (inactive) | 2.74 µM (inactive) | –
CCCC1(CC(=O)O)OCCc2c1[nH]c1ccccc21 (centres undefined) [PRODOLIC ACID] | > 100 µM (inactive) | > 100 µM (inactive) | > 100 µM (inactive) | > 100 µM (inactive) | > 100 µM (inactive) | > 100 µM (inactive) | > 100 µM (inactive) | > 100 µM (inactive) | –
C[Si](C)(C)c1ccc(CC2(Cc3ccc([Si](C)(C)C)cc3)CCNC2)cc1 | 2.77 µM (inactive) | 1.94 µM (inactive) | 2.51 µM (inactive) | 1.95 µM (inactive) | – | 2.13 µM (inactive) | 3.13 µM (inactive) | 2.18 µM (inactive) | 2.32 µM (inactive)
COc1cccc(C2=NC(C(C)C)CO2)c1 (centres undefined) | – | > 100 µM (inactive) | > 100 µM (inactive) | > 100 µM (inactive) | > 100 µM (inactive) | > 100 µM (inactive) | > 100 µM (inactive) | > 100 µM (inactive) | –
COc1ccc2c(c1OC)C(=O)C2 | > 100 µM (inactive) | > 100 µM (inactive) | – | > 100 µM (inactive) | > 100 µM (inactive) | > 100 µM (inactive) | – | > 100 µM (inactive) | –
COc1ccc(C2Oc3ccc(O)cc3[C@@H]2C)cc1OC (some centres undefined) | > 100 µM (inactive) | > 100 µM (inactive) | > 100 µM (inactive) | > 100 µM (inactive) | > 100 µM (inactive) | 59.8 µM (inactive) | > 100 µM (inactive) | 71 µM (inactive) | –
COc1ccc(/C=C/c2cc(OC)c(O[Si](C)(C)C(C)(C)C)c(OC)c2)cc1 | – | 67 µM (inactive) | > 100 µM (inactive) | 46.5 µM (inactive) | > 100 µM (inactive) | 14 µM (inactive) | – | > 100 µM (inactive) | 73.1 µM (inactive)
Cc1nn(-c2nc3ccccc3s2)c2c1C(=O)c1ccccc1-2 | > 100 µM (inactive) | > 100 µM (inactive) | > 100 µM (inactive) | > 100 µM (inactive) | – | > 100 µM (inactive) | > 100 µM (inactive) | 74.8 µM (inactive) | –
O=C1C(Cl)C(c2ccc(O)cc2)N1n1cnc2ccccc2c1=O (centres undefined) | 49.4 µM (inactive) | 39.8 µM (inactive) | 19.1 µM (inactive) | 22.2 µM (inactive) | 33.5 µM (inactive) | 28.2 µM (inactive) | 49 µM (inactive) | 16.7 µM (inactive) | –
O=C(/C=N/c1ccccc1[S-])c1ccco1.O=C(/C=N/c1ccccc1[S-])c1ccco1.[Zn+2] | – | – | 4.44 µM (inactive) | – | – | 21.2 µM (inactive) | 16.8 µM (inactive) | 10 µM (inactive) | 17 µM (inactive)
O=C1/C(=C/c2ccccc2)CN(C(=O)OCc2ccccc2)C/C1=C\c1ccccc1 | > 10 µM (inactive) | 5 µM (inactive) | 3.63 µM (inactive) | 5.87 µM (inactive) | 16.6 µM (inactive) | 11.2 µM (inactive) | 14.8 µM (inactive) | – | 16.9 µM (inactive)
O=S(=O)(c1ccccc1)C1CN2OC1(S(=O)(=O)c1ccccc1)CC2c1ccc(Br)cc1 (centres undefined) | – | > 100 µM (inactive) | > 100 µM (inactive) | > 100 µM (inactive) | 18.6 µM (inactive) | > 100 µM (inactive) | – | – | 26.5 µM (inactive)
COC1(C)CC2N(C(=O)c3ccccc3)N=C(c3ccccc3)CC2(C)O1 (centres undefined) | – | – | 44.5 µM (inactive) | – | > 100 µM (inactive) | > 100 µM (inactive) | – | > 100 µM (inactive) | > 100 µM (inactive)
CC(=O)OC1COC(N2C(=O)C(=O)c3c(C)cc(Cl)nc32)C(OC(C)=O)C1OC(C)=O (centres undefined) | > 100 µM (inactive) | > 100 µM (inactive) | > 100 µM (inactive) | > 100 µM (inactive) | > 100 µM (inactive) | > 100 µM (inactive) | > 100 µM (inactive) | > 100 µM (inactive) | –
CN(CC(=O)O)S(=O)(=O)c1ccc(Cl)cc1 | > 100 µM (inactive) | > 100 µM (inactive) | > 100 µM (inactive) | > 100 µM (inactive) | > 100 µM (inactive) | – | – | > 100 µM (inactive) | –
COc1ccc(Br)c2c1CC(C(=O)O)CC2 (centres undefined) | > 100 µM (inactive) | > 100 µM (inactive) | > 100 µM (inactive) | – | > 100 µM (inactive) | > 100 µM (inactive) | > 100 µM (inactive) | > 100 µM (inactive) | –
O=[N+]([O-])c1ccc(C2CC(c3ccc(NCc4nc5ccccc5[nH]4)cc3)=NO2)cc1 (centres undefined) | > 100 µM (inactive) | 32.1 µM (inactive) | 45 µM (inactive) | 33.7 µM (inactive) | – | 11.4 µM (inactive) | – | 16.4 µM (inactive) | –
